Columns and labels:
language disorder = experiment: Effect of EPA-E on a language-disordered patient with a history of cerebral infarction; type: in vivo, human
Method: A person with the history of cerebral infarction was treated. The patient experienced cerebral infarction in November, 2001, and started rehabilitation therapy of left hemiplegia from April, 2002. In June, 2002, the patient was hospitalized for 1 month because of recurrence of the cerebral infarction, and again started the rehabilitation therapy from August, 2002. The drugs that the patient had been taking before the EPA-E include: Gramalil (trade name; manufactured by Fujisawa Pharmaceutical Co., Ltd.; generic name, tiapride hydrochloride), Ketas (trade name; manufactured by Kyorin Pharmaceutical Co., Ltd.; generic name, ibudilast), Panaldine (trade name; manufactured by Daiichi Pharmaceutical Co., Ltd.; generic name, ticlopidine hydrochloride), Nivadil (trade name; manufactured by Fujisawa Pharmaceutical Co., Ltd.; generic name, nilvadipine), Altat (trade name; manufactured by Teikoku Hormone Mfg. Co., Ltd.; generic name, roxatidine acetate hydrochloride).
Before taking EPA-E, the patient could barely bring out a word. From September, 2002, the patient was administered with Epadel S600 (trade name; manufactured by Mochida Pharmaceutical Co., Ltd.; generic name, ethyl icosapentate) at a dose 600 mg and 3 times a day (namely, at a daily dose of 1800 mg).

rat = conditions: delayed discrimination test in rat; cited from earlier work
[1] = system: cell derived from mouse connective tissue; conditions: cited from earlier work

Structure (SMILES)	side effects (overall conclusion) (language disorder; human, in vivo)	therapeutic effect for language disorder (overall conclusion) (language disorder; summary of Example 1)	correct reaction rate (rat)	NGF production [1]	speech / conversation of the patient (language disorder; 1800 mg/day from September 2002, December 2002)	frequency of conversation, vocabulary, communication ability (language disorder; 1800 mg/day from September 2002, February 2003)	frequency of conversation and vocabulary (language disorder; 1800 mg/day from September 2002, January 2003)	speech / conversation of the patient (language disorder; 1800 mg/day from September 2002, November 2002)	adverse events (language disorder; 1800 mg/day, 6 months from the start of the administration)	speech / conversation of the patient (language disorder; person, Epadel S600 600 mg 3 times a day (1800 mg/day) from September 2002, late October 2002)
CC/C=C\C/C=C\C/C=C\C/C=C\C/C=C\CCCC(=O)O [EPA, all-cis-5,8,11,14,17-icosapentaenoic acid]	no side effects	significant therapeutic effects for language disorder	increase of correct reaction rate	action of enhancing NGF production	–	–	–	–	–	–
CC/C=C\C/C=C\C/C=C\C/C=C\C/C=C\CCCC(=O)OCC [EPA-E, ethyl icosapentate]	–	–	–	–	able to carry on a complicated conversation comprising not only a single word but a plurality of words	further improvement was noted in the frequency of conversation, vocabulary, communication ability	the frequency of the conversation as well as vocabulary increased even further	responding “not hurting anywhere” when fallen from the bed, and waking up at night and responding “I am not sleepy”	no adverse event suggested to be caused by EPA-E was found	started to respond by saying “Good morning”, and also started brief conversation with the care giver during the meal
